Laboratory results taken from patent US20160046610A1, “3-HETEROARYL SUBSTITUTED INDAZOLES” (BAYER PHARMA AKTIENGESELLSCHAFT, priority 2013, published 2016).
Where two headings read alike, the source gives them in different places.

Key:
[1] = molecular target: T1, catalytic domain of human Bub1 (amino acids 704-1085) (Homo sapiens, UniProt O43683); assay: Bub1 kinase assay (TR-FRET); assay type: biochemical
T1 construct: catalytic domain of human Bub1 (amino acids 704-1085); His6 (N); made in house; host or cells: Hi5 insect cells
T1 sequence (O43683 704-1085): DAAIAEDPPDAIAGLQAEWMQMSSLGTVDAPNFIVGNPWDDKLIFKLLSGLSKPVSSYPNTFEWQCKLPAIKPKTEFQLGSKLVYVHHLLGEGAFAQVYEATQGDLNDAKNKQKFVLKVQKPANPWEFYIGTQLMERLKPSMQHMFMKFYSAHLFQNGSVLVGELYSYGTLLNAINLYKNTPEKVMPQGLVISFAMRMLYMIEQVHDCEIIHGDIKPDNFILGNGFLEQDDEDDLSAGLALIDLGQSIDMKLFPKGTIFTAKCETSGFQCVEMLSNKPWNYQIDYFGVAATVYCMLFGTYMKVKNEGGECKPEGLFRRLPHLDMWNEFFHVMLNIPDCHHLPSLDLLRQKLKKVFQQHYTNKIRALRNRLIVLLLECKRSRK
Protocol: To this end, 100-fold concentrated compound solutions (in DMSO) were previously prepared by serial dilution (1:3.4) of 2 mM stocks in a clear low volume 384-well source microtiter plate (Greiner Bio-One, Frickenhausen, Germany), from which 50 nl of compounds were transferred into a black low volume test microtiter plate from the same supplier. […] The resulting mixture (5 μL final volume) was incubated at 22° C. during 60 min., and the reaction was stopped by the addition of 5 μL of an aqueous EDTA-solution (50 mM EDTA, in 100 mM HEPES pH 7.5 and 0.2% (w/v) bovine serum albumin) which also contained the TR-FRET detection reagents (0.2 μM streptavidin-XL665 [Cisbio Bioassays, Codolet, France] and 1 nM anti-phosho-Serine antibody [Merck Millipore, cat. #35-001] and 0.4 nM LANCE EU-W1024 labeled anti-mouse IgG antibody [Perkin-Elmer, product no. AD0077, alternatively a Terbium-cryptate-labeled anti-mouse IgG antibody from Cisbio Bioassays can be used]). The stopped reaction mixture was further incubated 1 h at 22° C. in order to allow the formation of complexes between peptides and detection reagents. Subsequently, the amount of product was evaluated by measurement of the resonance energy transfer from the Eu-chelate-antibody complex recognizing the Phosphoserine residue to the streptavidin-XL665 bound to the biotin moiety of the peptide. […] IC50 values were calculated by fitting the normalized inhibition data to a 4-parameter logistic equation (Minimum, Maximum, IC50, Hill; Y=Max+(Min−Max)/(1+(X/IC50)Hill)).

[2] = system: HeLa cell line; assay: Proliferation assay (HeLa cell line), crystal violet staining; assay type: cell-based; settings: Homo sapiens, 96 h, read-out: Biological Assay 2: Proliferation assay (HeLa cell line) median IC50
Protocol: Cultivated tumor cells (cells were ordered from ATCC, except HeLa-MaTu and HeLa-MaTu-ADR, which were ordered from EPO-GmbH, Berlin) were plated at a density of 1000 to 5000 cells/well, depending on the growth rate of the respective cell line, in a 96-well multititer plate in 200 μL of their respective growth medium supplemented 10% fetal calf serum. After 24 hours, the cells of one plate (zero-point plate) were stained with crystal violet (see below), while the medium of the other plates was replaced by fresh culture medium (200 μL), to which the test substances were added in various concentrations (0 μM, as well as in the range of 0.001-10 μM; the final concentration of the solvent dimethyl sulfoxide was 0.5%). The cells were incubated for 4 days in the presence of test substances. Cell proliferation was determined by staining the cells with crystal violet: the cells were fixed by adding 20 μl/measuring point of an 11% glutaric aldehyde solution for 15 minutes at room temperature. After three washing cycles of the fixed cells with water, the plates were dried at room temperature. The cells were stained by adding 100 μl/measuring point of a 0.1% crystal violet solution (pH 3.0). After three washing cycles of the stained cells with water, the plates were dried at room temperature. The dye was dissolved by adding 100 μl/measuring point of a 10% acetic acid solution. Absorption was determined by photometry at a wavelength of 595 nm. The change of cell number, in percent, was calculated by normalization of the measured values to the absorption values of the zero-point plate (=0%) and the absorption of the untreated (0 μm) cells (=100%). The IC50 values were determined by means of a 4 parameter fit using the company's own software.

[3] = TR-FRET, recombinant catalytic domain of human Bub1, ATP 10 μM, peptide substrate 1 μM, median value, read-out: Biological Assay 1: Bub1 kinase assay median IC50
[4] = HeLa cells, incubated for 4 days with test substance, crystal violet staining, median value

SMILES | IC50 [1, 3] [nM] | IC50 ([2]; HeLa) [nM] | IC50 [1] [nM] | IC50 [2, 4] [nM]
CCCc1ccc(Cn2nc(-c3ncc(OC)c(Nc4ccncn4)n3)c3ccccc32)cc1 [Example 2-3-1, 5-methoxy-2-[1-(4-propylbenzyl)-1H-indazol-3-yl]-N-(pyrimidin-4-yl)pyrimidin-4-amine] | 44 | > 10000 |  | 
CCOc1cc(F)c(Cn2nc(-c3ncc(OC)c(Nc4ccc(O)cc4)n3)c3ccccc32)c(F)c1 [Example 2-4-1, 4-({2-[1-(4-ethoxy-2,6-difluorobenzyl)-1H-indazol-3-yl]-5-methoxypyrimidin-4-yl}amino)phenol] | 240 | 6900 |  | 
CCOc1cc(F)c(Cn2nc(-c3cc(Nc4ccncn4)ccn3)c3ccccc32)c(F)c1 [Example 2-5-1, N-{2-[1-(4-ethoxy-2,6-difluorobenzyl)-1H-indazol-3-yl]pyridin-4-yl}pyrimidin-4-amine] | 14 | > 10000 |  | 
CCOc1cc(F)c(Cn2nc(-c3cc(Nc4ncncn4)ccn3)c3ccccc32)c(F)c1 [Example 2-5-2, N-{2-[1-(4-ethoxy-2,6-difluorobenzyl)-1H-indazol-3-yl]pyridin-4-yl}-1,3,5-triazin-2-amine] | 21 | 2900 |  | 
CCOc1cc(F)c(Cn2nc(-c3cc(Nc4cnsc4)ccn3)c3ccccc32)c(F)c1 [Example 2-5-3, 2-[1-(4-ethoxy-2,6-difluorobenzyl)-1H-indazol-3-yl]-N-(1,2-thiazol-4-yl)pyridin-4-amine] | 720 | > 10000 |  | 
CCCc1ccc(Cn2nc(-c3cc(Nc4ccncn4)ccn3)c3ccccc32)cc1 [Example 2-6-3, N-{2-[1-(4-propylbenzyl)-1H-indazol-3-yl]pyridin-4-yl}pyrimidin-4-amine] |  |  | 28 | 6900
CCOc1cc(F)c(Cn2nc(-c3ncc(OC)c(Nc4cn[nH]c4)n3)c3ccccc32)c(F)c1 [Example 2-10-2, 2-[1-(4-ethoxy-2,6-difluorobenzyl)-1H-indazol-3-yl]-5-methoxy-N-(1H-pyrazol-4-yl)pyrimidin-4-amine] | 4.7 | > 10000 |  | 
CCOc1cc(F)c(Cn2nc(-c3ncc(OC)c(Nc4ccccc4C(N)=O)n3)c3ccccc32)c(F)c1 [Example 2-12-1, 2-({2-[1-(4-ethoxy-2,6-difluorobenzyl)-1H-indazol-3-yl]-5-methoxypyrimidin-4-yl}amino)benzamide] | 920 | > 10000 |  | 
CCOc1cc(F)c(Cn2nc(-c3ncc(OC)c(Nc4ccccc4C(=O)NC)n3)c3ccccc32)c(F)c1 [Example 2-12-2, 2-({2-[1-(4-ethoxy-2,6-difluorobenzyl)-1H-indazol-3-yl]-5-methoxypyrimidin-4-yl}amino)-N-methylbenzamide] | 1100 | 1100 |  | 
CCOc1cc(F)c(Cn2nc(-c3ncc(OC)c(Nc4ccc(F)cc4C(=O)NC)n3)c3ccccc32)c(F)c1 [Example 2-12-3, 2-({2-[1-(4-ethoxy-2,6-difluorobenzyl)-1H-indazol-3-yl]-5-methoxypyrimidin-4-yl}amino)-5-fluoro-N-methylbenzamide] | 6800 | 1200 |  | 

The next lines start with the values.

IC50 [1, 3] [nM] | IC50 ([2]; HeLa) [nM] | IC50 [1] [nM] | IC50 [2, 4] [nM] | SMILES
1500 | > 10000 |  |  | CCOc1cc(F)c(Cn2nc(-c3ncc(OC)c(Nc4ccccc4)n3)c3ccccc32)c(F)c1 [Example 2-1-1, 2-[1-(4-ethoxy-2,6-difluorobenzyl)-1H-indazol-3-yl]-5-methoxy-N-phenylpyrimidin-4-amine]
2600 | 3600 |  |  | COc1ccc(Cn2nc(-c3ncc(OC)c(Nc4cccnc4)n3)c3ccccc32)cc1 [Example 2-1-3, 5-methoxy-2-[1-(4-methoxybenzyl)-1H-indazol-3-yl]-N-(pyridin-3-yl)pyrimidin-4-amine]
11 | > 10000 |  |  | CCOc1cc(F)c(Cn2nc(-c3ncc(OC)c(Nc4ccnnc4)n3)c3ccccc32)c(F)c1 [Example 2-2-1, N-{2-[1-(4-ethoxy-2,6-difluorobenzyl)-1H-indazol-3-yl]-5-methoxypyrimidin-4-yl}pyridazin-4-amine]
22 | > 10000 |  |  | CCOc1cc(F)c(Cn2nc(-c3ncc(OC)c(Nc4ccncn4)n3)c3ccccc32)c(F)c1 [Example 2-2-2, 2-[1-(4-ethoxy-2,6-difluorobenzyl)-1H-indazol-3-yl]-5-methoxy-N-(pyrimidin-4-yl)pyrimidin-4-amine]
25 | 5000 |  |  | CCOc1cc(F)c(Cn2nc(-c3cc(Nc4ccncn4)ncn3)c3ccccc32)c(F)c1 [Example 2-2-3, 6-[1-(4-ethoxy-2,6-difluorobenzyl)-1H-indazol-3-yl]-N-(pyrimidin-4-yl)pyrimidin-4-amine]
660 | > 10000 |  |  | CCOc1cc(F)c(Cn2nc(-c3ncc(OC)c(Nc4cncc(C(=O)NC)n4)n3)c3ccccc32)c(F)c1 [Example 2-2-6, 6-({2-[1-(4-ethoxy-2,6-difluorobenzyl)-1H-indazol-3-yl]-5-methoxypyrimidin-4-yl}amino)-N-methylpyrazine-2-carboxamide]
 |  | 13 | > 10000 | Fc1cccc(F)c1Cn1nc(-c2cc(Nc3ccncn3)ccn2)c2ccccc21 [Example 2-6-2, N-{2-[1-(2,6-difluorobenzyl)-1H-indazol-3-yl]pyridin-4-yl}pyrimidin-4-amine]
17 | 2400 |  |  | CCOc1cc(F)c(Cn2nc(-c3cc(Nc4cn[nH]c4)ccn3)c3ccccc32)c(F)c1 [Example 2-7-1, 2-[1-(4-ethoxy-2,6-difluorobenzyl)-1H-indazol-3-yl]-N-(1H-pyrazol-4-yl)pyridin-4-amine]
13 | > 10000 |  |  | Oc1cnc(-c2nn(Cc3ccccc3F)c3ccccc23)nc1Nc1ccncn1 [Example 2-9-1, 2-[1-(2-fluorobenzyl)-1H-indazol-3-yl]-4-(pyrimidin-4-ylamino)pyrimidin-5-ol]
 | 3400 | 20 |  | COc1ccc(Cn2nc(-c3ncc(OC)c(Nc4cn[nH]c4)n3)c3ccccc32)cc1 [Example 2-10-1, 5-methoxy-2-[1-(4-methoxybenzyl)-1H-indazol-3-yl]-N-(1H-pyrazol-4-yl)pyrimidin-4-amine]
 |  | 66 | > 10000 | Fc1ccc(Cn2nc(-c3cc(Nc4ccncn4)ccn3)c3ccccc32)c(F)c1 [Example 2-11-1, N-{2-[1-(2,4-difluorobenzyl)-1H-indazol-3-yl]-pyridin-4-yl}pyrimidin-4-amine]
110 | 2400 |  |  | CCOc1cc(F)c(Cn2nc(-c3ncc(OC)c(Nc4ccc(F)cc4C(N)=O)n3)c3ccccc32)c(F)c1 [Example 2-12-4, 2-({2-[1-(4-ethoxy-2,6-difluorobenzyl)-1H-indazol-3-yl]-5-methoxypyrimidin-4-yl}amino)-5-fluorobenzamide]
